pIC50: −log10 of the molar value.
System: CD69 by B lymphocytes in human whole blood activated with goat F(ab')2 anti-human IgM
Test: CD69 Whole Blood Assay (CD69 Hu Blood FACS)
Assay type: cell-based
Details: Homo sapiens, Lymphocyte, Table 1, anti-IgM stimulation, CD69 positive of CD20 positive cells
Procedure: CD69 is a type II C-type lectin involved in lymphocyte migration and cytokine secretion.
Human blood is obtained from healthy volunteers, with the following restrictions: 1 week drug-free, non-smokers. Blood (approximately 20 mls to test 8 compounds) is collected by venipuncture into Vacutainer® (Becton, Dickinson and Co.) tubes with sodium heparin.
Solutions of Formula I compounds at 10 mM in DMSO are diluted 1:10 in 100% DMSO, then are diluted by three-fold serial dilutions in 100% DMSO for a ten point dose-response curve. The compounds are further diluted 1:10 in PBS and then an aliquot of 5.5 μl of each compound is added in duplicate to a 2 ml 96-well plate; 5.5 μl of 10% DMSO in PBS is added as control and no-stimulus wells. Human whole blood—HWB (100 μl) is added to each well. After mixing the plates are incubated at 37° C., 5% CO2, 100% humidity for 30 minutes. Goat F(ab′)2 anti-human IgM (10 μl of a 500 μg/ml solution, 50 μg/ml final) is added to each well (except the no-stimulus wells) with mixing and the plates are incubated for an additional 20 hours. At the end of the 20 hour incubation, samples are incubated with fluorescent labeled antibodies for 30 minutes, at 37° C., 5% CO2, 100% humidity. Include induced control, unstained and single stains for compensation adjustments and initial voltage settings. Samples are then lysed with PharM Lyse™ (BD Biosciences Pharmingen) according to the manufacturer's instructions. Samples are then transferred to a 96 well plate suitable to be run on the BD Biosciences HTS 96 well system on the LSRII machine. Data acquired and Mean Fluorescence Intensity values were obtained using BD Biosciences DIVA Software. Results are initially analyzed by FACS analysis software (Flow Jo).

SMILES | pIC50
Cn1cc(-c2ccnc(-n3ncc4cc(C(C)(C)C)cc(F)c4c3=O)c2CO)cc(NC(=O)C2CC2)c1=O [Compound 125, N-[5-[2-(6-tert-butyl-8-fluoro-1-oxo-phthalazin-2-yl)-3-(hydroxymethyl)-4-pyridyl]-1-methyl-2-oxo-3-pyridyl]cyclopropanecarboxamide] | 7.20
Cn1cc(-c2ccnc(N3CCn4c(cc5c4CC(C)(C)C5)C3=O)c2CO)cc(NC(=O)[C@H]2C[C@H]2F)c1=O [Compound 119, (1R,2R)—N-[5-[2-(7,7-dimethyl-4-oxo-1,2,6,8-tetrahydrocyclopenta[3,4]pyrrolo[3,5-b]pyrazin-3-yl)-3-(hydroxymethyl)-4-pyridyl]-1-methyl-2-oxo-3-pyridyl]-2-fluoro-cyclopropanecarboxamide] | 6.91
Cn1cc(-c2ccnc(N3CCn4c(cc5c4CC(C)(C)C5)C3=O)c2CO)cc(NC(=O)[C@@H]2C[C@@H]2F)c1=O [Compound 120, (1S,2S)—N-[5-[2-(7,7-dimethyl-4-oxo-1,2,6,8-tetrahydrocyclopenta[3,4]pyrrolo[3,5-b]pyrazin-3-yl)-3-(hydroxymethyl)-4-pyridyl]-1-methyl-2-oxo-3-pyridyl]-2-fluoro-cyclopropanecarboxamide] | 7.07

Same assay, conditions: Lymphocyte, Table 1, anti-IgM stimulation, CD69 positive of CD20 positive cells

pIC50 | SMILES
5.80 | CCC(=O)Nc1cc(-c2ccnc(N3CCn4c(cc5c4CC(C)(C)C5)C3=O)c2CO)cn(C)c1=O [Compound 107, N-[5-[2-(7,7-dimethyl-4-oxo-1,2,6,8-tetrahydrocyclopenta[3,4]pyrrolo[3,5-b]pyrazin-3-yl)-3-(hydroxymethyl)-4-pyridyl]-1-methyl-2-oxo-3-pyridyl]propanamide]
5.31 | Cn1cc(-c2ccnc(N3CCn4c(cc5c4CC(C)(C)C5)C3=O)c2CO)cc(NC(=O)CC2CC2)c1=O [Compound 103, 2-cyclopropyl-N-[5-[2-(7,7-dimethyl-4-oxo-1,2,6,8-tetrahydrocyclopenta[3,4]pyrrolo[3,5-b]pyrazin-3-yl)-3-(hydroxymethyl)-4-pyridyl]-1-methyl-2-oxo-3-pyridyl]acetamide]
5.38 | Cn1cc(-c2ccnc(N3CCn4c(cc5c4CC(C)(C)C5)C3=O)c2CO)cc(NC(=O)C2CCC2)c1=O [Compound 101, N-[5-[2-(7,7-dimethyl-4-oxo-1,2,6,8-tetrahydrocyclopenta[3,4]pyrrolo[3,5-b]pyrazin-3-yl)-3-(hydroxymethyl)-4-pyridyl]-1-methyl-2-oxo-3-pyridyl]cyclobutanecarboxamide]
6.27 | CC(=O)Nc1cc(-c2ccnc(N3CCn4c(cc5c4CC(C)(C)C5)C3=O)c2CO)cn(C)c1=O [Compound 121, N-[5-[2-(7,7-dimethyl-4-oxo-1,2,6,8-tetrahydrocyclopenta[3,4]pyrrolo[3,5-b]pyrazin-3-yl)-3-(hydroxymethyl)-4-pyridyl]-1-methyl-2-oxo-3-pyridyl]acetamide]
< 5.28 | Cn1cc(-c2ccnc(N3CCn4c(cc5c4CC(C)(C)C5)C3=O)c2CO)cc(NC(=O)c2cccnc2)c1=O [Compound 109, N-[5-[2-(7,7-dimethyl-4-oxo-1,2,6,8-tetrahydrocyclopenta[3,4]pyrrolo[3,5-b]pyrazin-3-yl)-3-(hydroxymethyl)-4-pyridyl]-1-methyl-2-oxo-3-pyridyl]pyridine-3-carboxamide]

Same assay, conditions: Lymphocyte, Table 2, anti-IgM stimulation, CD69 positive of CD20 positive cells

pIC50 | SMILES
< 5.21 | Cn1cc(-c2ccnc(N3CCn4c(cc5c4CC(C)(C)C5)C3=O)c2CO)cc(NC(=O)[C@H]2CCCO2)c1=O (stereo in doubt) [Compound 148, (2R)—N-[5-[2-(7,7-dimethyl-4-oxo-1,2,6,8-tetrahydrocyclopenta[3,4]pyrrolo[3,5-b]pyrazin-3-yl)-3-(hydroxymethyl)-4-pyridyl]-1-methyl-2-oxo-3-pyridyl]tetrahydrofuran-2-carboxamide]
< 5.36 | COCC(=O)Nc1cc(-c2ccnc(N3CCn4c(cc5c4CC(C)(C)C5)C3=O)c2CO)cn(C)c1=O [Compound 157, N-[5-[2-(7,7-dimethyl-4-oxo-1,2,6,8-tetrahydrocyclopenta[3,4]pyrrolo[3,5-b]pyrazin-3-yl)-3-(hydroxymethyl)-4-pyridyl]-1-methyl-2-oxo-3-pyridyl]-2-methoxy-acetamide]
< 5.47 | Cn1cc(-c2ccnc(N3CCn4c(cc5c4CC(C)(C)C5)C3=O)c2CO)cc(NC(=O)C2(O)CC2)c1=O [Compound 135, N-[5-[2-(7,7-dimethyl-4-oxo-1,2,6,8-tetrahydrocyclopenta[3,4]pyrrolo[3,5-b]pyrazin-3-yl)-3-(hydroxymethyl)-4-pyridyl]-1-methyl-2-oxo-3-pyridyl]-1-hydroxy-cyclopropanecarboxamide]
5.38 | Cn1cc(-c2ccnc(N3CCn4c(cc5c4CC(C)(C)C5)C3=O)c2CO)cc(NC(=O)C2(F)CC2)c1=O [Compound 134, N-[5-[2-(7,7-dimethyl-4-oxo-1,2,6,8-tetrahydrocyclopenta[3,4]pyrrolo[3,5-b]pyrazin-3-yl)-3-(hydroxymethyl)-4-pyridyl]-1-methyl-2-oxo-3-pyridyl]-1-fluoro-cyclopropanecarboxamide]
< 5.20 | Cn1cc(-c2ccnc(N3CCn4c(cc5c4CC(C)(C)C5)C3=O)c2CO)cc(NC(=O)[C@@H]2CCCO2)c1=O (stereo in doubt) [Compound 149, (2S)—N-[5-[2-(7,7-dimethyl-4-oxo-1,2,6,8-tetrahydrocyclopenta[3,4]pyrrolo[3,5-b]pyrazin-3-yl)-3-(hydroxymethyl)-4-pyridyl]-1-methyl-2-oxo-3-pyridyl]tetrahydrofuran-2-carboxamide]
< 5.37 | Cn1cc(-c2ccnc(N3CCc4c(cc5n4CCCC5)C3=O)c2CO)cc(NC(=O)C2CC2)c1=O [Compound 133, N-[5-[3-(hydroxymethyl)-2-(1-oxo-3,4,6,7,8,9-hexahydropyrido[3,4-b]indolizin-2-yl)-4-pyridyl]-1-methyl-2-oxo-3-pyridyl]cyclopropanecarboxamide]
5.72 | CCCC(=O)Nc1cc(-c2ccnc(N3CCn4c(cc5c4CC(C)(C)C5)C3=O)c2CO)cn(C)c1=O [Compound 163, N-[5-[2-(7,7-dimethyl-4-oxo-1,2,6,8-tetrahydrocyclopenta[3,4]pyrrolo[3,5-b]pyrazin-3-yl)-3-(hydroxymethyl)-4-pyridyl]-1-methyl-2-oxo-3-pyridyl]butanamide]

Same assay, conditions: Table 1, anti-IgM stimulation, CD69 positive of CD20 positive cells

SMILES | pIC50
Cn1cc(-c2ccnc(N3CCn4c(cc5c4CC(C)(C)C5)C3=O)c2CO)cc(NC(=O)C2CC2F)c1=O (centres unmarked) [Compound 117, N-[5-[2-(7,7-dimethyl-4-oxo-1,2,6,8-tetrahydrocyclopenta[3,4]pyrrolo[3,5-b]pyrazin-3-yl)-3-(hydroxymethyl)-4-pyridyl]-1-methyl-2-oxo-3-pyridyl]-2-fluoro-cyclopropanecarboxamide] | 6.25
Cn1cc(-c2ccnc(N3CCn4c(cc5c4CC(C)(C)C5)C3=O)c2CO)cc(NC(=O)C2CC2F)c1=O (centres unmarked) [Compound 118, N-[5-[2-(7,7-dimethyl-4-oxo-1,2,6,8-tetrahydrocyclopenta[3,4]pyrrolo[3,5-b]pyrazin-3-yl)-3-(hydroxymethyl)-4-pyridyl]-1-methyl-2-oxo-3-pyridyl]-2-fluoro-cyclopropanecarboxamide] | 6.66

Reference: patent US9326985B2, “Heteroaryl pyridone and aza-pyridone amide compounds” (Genentech, Inc., priority 2013, dated 2016)
